Source: patent US20240360178A1, “MACROCYCLIC IMMUNOMODULATORS” (Bristol-Myers Squibb Company, priority 2021, published 2024)
Positions of bridges follow the written chain, without caps; N, C: chain ends. Non-standard residues stand in square brackets, D forms with d. Residues, ends and D or L forms follow the SMILES beside them. Phe(4-COOH) = N[C@@H](Cc1ccc(C(=O)O)cc1)C(=O)O; Bip = N[C@@H](Cc1ccc(-c2ccccc2)cc1)C(=O)O; Phe(3-Br) = N[C@@H](Cc1cccc(Br)c1)C(=O)O; Phe(4-NH2) = Nc1ccc(C[C@H](N)C(=O)O)cc1; NMeF = CN[C@@H](Cc1ccccc1)C(=O)O; hPhe = N[C@@H](CCc1ccccc1)C(=O)O; 3Pal = N[C@@H](Cc1cccnc1)C(=O)O; NMeA = CN[C@@H](C)C(=O)O; Nle = CCCC[C@H](N)C(=O)O; Orn = NCCC[C@H](N)C(=O)O; Dab = NCC[C@H](N)C(=O)O; Sar = CNCC(=O)O

molecular target: T1, human PD-1 (Jurkat-PD-1 cells) / PE-labeled human PD-L1-Ig (Homo sapiens, UniProt Q15116); test: Jurkat-PD-1 Cell Binding High-Content Screening Assay (CBA); Jurkat hPD1-PDL1 assay; settings: Jurkat cell line over-expressing human PD-1; PE-labeled PD-L1-Ig 20 nM final; compound incubated 2 hours at 37° C.; read-out: Jurkat HPD1-PDL1 IC50
T1 construct: expressed in transfected cells; host or cells: Jurkat cell line over-expressing human PD-1
T1 sequence (Q15116 25-288): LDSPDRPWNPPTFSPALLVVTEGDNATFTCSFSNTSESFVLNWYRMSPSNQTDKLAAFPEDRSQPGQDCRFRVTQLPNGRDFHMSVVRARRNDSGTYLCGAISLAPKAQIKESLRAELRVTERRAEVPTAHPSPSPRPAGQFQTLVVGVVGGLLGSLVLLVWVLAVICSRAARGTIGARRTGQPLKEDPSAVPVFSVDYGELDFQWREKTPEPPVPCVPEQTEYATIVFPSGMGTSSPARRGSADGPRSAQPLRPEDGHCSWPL
Procedure, shortened: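 Binding of phycoerythrin-conjugated PD-L1-Ig (20 nM final) to PD-1-overexpressing Jurkat cells was read by high-content imaging. Cells in DMEM/10% FCS were exposed to compound for 2 hours at 37° C before labeled ligand was added.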

Row | SMILES | IC50
1 | CC(C)C[C@@H]1NC(=O)[C@H](Cc2c[nH]c3ccccc23)NC(=O)[C@H](CC(=O)O)NC(=O)[C@H](Cc2cccc(Br)c2)NC(=O)[C@H](Cc2ccccc2)NC(=O)CSC[C@@H](C(=O)N[C@@H](C)C(N)=O)NC(=O)[C@H](CO)NC(=O)[C@H](C(C)C)NC(=O)[C@H](CC(C)C)NC(=O)[C@H](CC(N)=O)NC(=O)[C@H]2CCCN2C(=O)[C@H](C)N(C)C(=O)[C@H](C(C)C)NC(=O)[C@H](Cc2ccc(-c3ccccc3)cc2)NC1=O [Example 1065] ({CH2CO}-F[Phe(3-Br)]DWL[Bip]V[NMeA][dP]NLVSCA-NH2; thioether N-14) | 120 nM
2 | CC(C)C[C@@H]1NC(=O)[C@H](Cc2c[nH]c3ccccc23)NC(=O)[C@H](CC(=O)O)NC(=O)[C@H](Cc2ccc(O)cc2)NC(=O)[C@H](Cc2ccccc2)NC(=O)CSC[C@@H](C(=O)NCC(N)=O)NC(=O)[C@H](CO)NC(=O)[C@H](C(C)C)NC(=O)[C@H](CC(C)C)NC(=O)[C@H](CCN)NC(=O)CN(C)C(=O)[C@H](C)N(C)C(=O)[C@H](C(C)C)NC(=O)[C@H](Cc2ccc(-c3ccccc3)cc2)NC1=O [Example 1069] ({CH2CO}-FYDWL[Bip]V[NMeA][Sar][Dab]LVSCG-NH2; thioether N-14) | 160 nM
3 | CC(C)C[C@@H]1NC(=O)[C@H](Cc2c[nH]c3ccccc23)NC(=O)[C@H](CC(=O)O)NC(=O)[C@H](Cc2ccc(O)cc2)NC(=O)[C@H](Cc2ccccc2)NC(=O)CSC[C@@H](C(=O)NCC(N)=O)NC(=O)[C@H](CO)NC(=O)[C@H](C(C)C)NC(=O)[C@H](CC(C)C)NC(=O)[C@H](CCC(N)=O)NC(=O)CN(C)C(=O)[C@H](C)N(C)C(=O)[C@H](C(C)C)NC(=O)[C@H](Cc2ccc(-c3ccccc3)cc2)NC1=O [Example 1072] ({CH2CO}-FYDWL[Bip]V[NMeA][Sar]QLVSCG-NH2; thioether N-14) | 190 nM
4 | CC(C)C[C@@H]1NC(=O)[C@H](CCCNC(=N)N)NC(=O)[C@H](Cc2ccccc2)N(C)C(=O)[C@H](C)N(C)C(=O)[C@H](CCCNC(=N)N)NC(=O)[C@H](Cc2ccc(-c3ccccc3)cc2)NC(=O)[C@H](C(C)C)NC(=O)[C@H](Cc2c[nH]c3ccccc23)NC(=O)[C@H](CC(=O)O)NC(=O)[C@H](Cc2ccc(O)cc2)NC(=O)[C@H](Cc2ccccc2)NC(=O)CSC[C@@H](C(=O)N[C@@H](C)C(N)=O)NC(=O)[C@H](CO)NC(=O)[C@H](C(C)C)NC1=O [Example 1074] ({CH2CO}-FYDWV[Bip]R[NMeA][NMeF]RLVSCA-NH2; thioether N-14) | 190 nM
5 | CC(C)C[C@@H]1NC(=O)[C@H](CCCNC(=N)N)NC(=O)[C@H]2CCCN2C(=O)[C@H](C)N(C)C(=O)[C@H](C(C)C)NC(=O)[C@H](Cc2ccc(-c3ccccc3)cc2)NC(=O)[C@H](C(C)C)NC(=O)[C@H](Cc2c[nH]c3ccccc23)NC(=O)[C@H](CC(=O)O)NC(=O)[C@H](Cc2ccc(O)cc2)NC(=O)[C@H](Cc2ccccc2)NC(=O)CSC[C@@H](C(=O)N[C@@H](C)C(N)=O)NC(=O)[C@H](CO)NC(=O)[C@H](C(C)C)NC1=O [Example 1075] ({CH2CO}-FYDWV[Bip]V[NMeA][dP]RLVSCA-NH2; thioether N-14) | 200 nM
6 | CC(C)C[C@@H]1NC(=O)[C@H](Cc2c[nH]c3ccccc23)NC(=O)[C@H](CC(=O)O)NC(=O)[C@H](Cc2ccc(N)cc2)NC(=O)[C@H](Cc2ccccc2)NC(=O)CSC[C@@H](C(=O)N[C@@H](C)C(N)=O)NC(=O)[C@H](CO)NC(=O)[C@H](C(C)C)NC(=O)[C@H](CC(C)C)NC(=O)[C@H](CC(N)=O)NC(=O)CN(C)C(=O)[C@H](C)N(C)C(=O)[C@H](C(C)C)NC(=O)[C@H](Cc2ccc(-c3ccccc3)cc2)NC1=O [Example 1076] ({CH2CO}-F[Phe(4-NH2)]DWL[Bip]V[NMeA][Sar]NLVSCA-NH2; thioether N-14) | 210 nM
7 | CC(C)C[C@@H]1NC(=O)CSC[C@@H](C(=O)NCC(N)=O)NC(=O)[C@H](CO)NC(=O)[C@H](C(C)C)NC(=O)[C@H](CC(C)C)NC(=O)[C@H](CCCNC(=N)N)NC(=O)[C@H](Cc2ccccc2)N(C)C(=O)[C@H](C)N(C)C(=O)[C@H](CCCNC(=N)N)NC(=O)[C@H](Cc2ccc(-c3ccccc3)cc2)NC(=O)[C@H](C(C)C)NC(=O)[C@H](Cc2c[nH]c3ccccc23)NC(=O)[C@H](CC(=O)O)NC(=O)[C@H](Cc2ccc(O)cc2)NC1=O [Example 1077] ({CH2CO}-LYDWV[Bip]R[NMeA][NMeF]RLVSCG-NH2; thioether N-14) | 210 nM
8 | CC(C)C[C@@H]1NC(=O)[C@H](Cc2c[nH]c3ccccc23)NC(=O)[C@H](CC(=O)O)NC(=O)[C@H](Cc2ccc(O)cc2)NC(=O)[C@H](Cc2ccccc2)NC(=O)CSC[C@@H](C(=O)N[C@@H](C)C(N)=O)NC(=O)[C@H](CO)NC(=O)[C@H](C(C)C)NC(=O)[C@H](CC(C)C)NC(=O)[C@H](CCCNC(=N)N)NC(=O)[C@H](Cc2ccccc2)N(C)C(=O)[C@H](C)N(C)C(=O)[C@H](CCCNC(=N)N)NC(=O)[C@H](Cc2ccc(-c3ccccc3)cc2)NC1=O [Example 1078] ({CH2CO}-FYDWL[Bip]R[NMeA][NMeF]RLVSCA-NH2; thioether N-14) | 220 nM
9 | CC(C)C[C@@H]1NC(=O)[C@H](Cc2c[nH]c3ccccc23)NC(=O)[C@H](CC(=O)O)NC(=O)[C@H](Cc2ccc(O)cc2)NC(=O)[C@H](Cc2ccccc2)NC(=O)CSC[C@@H](C(=O)NCC(N)=O)NC(=O)[C@H](CO)NC(=O)[C@H](C(C)C)NC(=O)[C@H](CC(C)C)NC(=O)[C@H](CCCN)NC(=O)CN(C)C(=O)[C@H](C)N(C)C(=O)[C@H](C(C)C)NC(=O)[C@H](Cc2ccc(-c3ccccc3)cc2)NC1=O [Example 1079] ({CH2CO}-FYDWL[Bip]V[NMeA][Sar][Orn]LVSCG-NH2; thioether N-14) | 220 nM
10 | CC(C)C[C@@H]1NC(=O)[C@H](Cc2c[nH]c3ccccc23)NC(=O)[C@H](CC(=O)O)NC(=O)[C@H](Cc2cccnc2)NC(=O)[C@H](Cc2ccccc2)NC(=O)CSC[C@@H](C(=O)N[C@@H](C)C(N)=O)NC(=O)[C@H](CO)NC(=O)[C@H](C(C)C)NC(=O)[C@H](CC(C)C)NC(=O)[C@H](CC(N)=O)NC(=O)CN(C)C(=O)[C@H](C)N(C)C(=O)[C@H](C(C)C)NC(=O)[C@H](Cc2ccc(-c3ccccc3)cc2)NC1=O [Example 1080] ({CH2CO}-F[3Pal]DWL[Bip]V[NMeA][Sar]NLVSCA-NH2; thioether N-14) | 230 nM

The next lines start with the values.

Row | IC50 | SMILES
11 | 160 nM | CC(C)C[C@@H]1NC(=O)[C@H](Cc2c[nH]c3ccccc23)NC(=O)[C@H](CC(=O)O)NC(=O)[C@H](Cc2ccc(C(=O)O)cc2)NC(=O)[C@H](Cc2ccccc2)NC(=O)CSC[C@@H](C(=O)N[C@@H](C)C(N)=O)NC(=O)[C@H](CO)NC(=O)[C@H](C(C)C)NC(=O)[C@H](CC(C)C)NC(=O)[C@H](CC(N)=O)NC(=O)CN(C)C(=O)[C@H](C)N(C)C(=O)[C@H](C(C)C)NC(=O)[C@H](Cc2ccc(-c3ccccc3)cc2)NC1=O [Example 1066] ({CH2CO}-F[Phe(4-COOH)]DWL[Bip]V[NMeA][Sar]NLVSCA-NH2; thioether N-14)
12 | 160 nM | CCCC[C@@H]1NC(=O)[C@H](CCCNC(=N)N)NC(=O)[C@H](Cc2ccccc2)N(C)C(=O)[C@H](C)N(C)C(=O)[C@H](CCCNC(=N)N)NC(=O)[C@H](Cc2ccc(-c3ccccc3)cc2)NC(=O)[C@H](C(C)C)NC(=O)[C@H](Cc2c[nH]c3ccccc23)NC(=O)[C@H](CC(=O)O)NC(=O)[C@H](Cc2ccc(O)cc2)NC(=O)[C@H](Cc2ccccc2)NC(=O)CSC[C@@H](C(=O)NCC(N)=O)NC(=O)[C@H](CO)NC(=O)[C@H](C(C)C)NC1=O [Example 1067] ({CH2CO}-FYDWV[Bip]R[NMeA][NMeF]R[Nle]VSCG-NH2; thioether N-14)
13 | 170 nM | CC(C)C[C@@H]1NC(=O)[C@H](CCCNC(=N)N)NC(=O)[C@H](Cc2ccccc2)N(C)C(=O)[C@H](C)N(C)C(=O)[C@H](CCCNC(=N)N)NC(=O)[C@H](Cc2ccc(-c3ccccc3)cc2)NC(=O)[C@H](C(C)C)NC(=O)[C@H](Cc2c[nH]c3ccccc23)NC(=O)[C@H](CC(=O)O)NC(=O)[C@H](Cc2ccc(O)cc2)NC(=O)[C@H](Cc2ccc(O)cc2)NC(=O)CSC[C@@H](C(=O)NCC(N)=O)NC(=O)[C@H](CO)NC(=O)[C@H](C(C)C)NC1=O [Example 1068] ({CH2CO}-YYDWV[Bip]R[NMeA][NMeF]RLVSCG-NH2; thioether N-14)
14 | 180 nM | CC(C)C[C@@H]1NC(=O)[C@H](Cc2c[nH]c3ccccc23)NC(=O)[C@H](CC(=O)O)NC(=O)[C@H](Cc2ccc(O)cc2)NC(=O)[C@H](CCc2ccccc2)NC(=O)CSC[C@@H](C(=O)N[C@@H](C)C(N)=O)NC(=O)[C@H](CO)NC(=O)[C@H](C(C)C)NC(=O)[C@H](CC(C)C)NC(=O)[C@H](CC(N)=O)NC(=O)CN(C)C(=O)[C@H](C)N(C)C(=O)[C@H](C(C)C)NC(=O)[C@H](Cc2ccc(-c3ccccc3)cc2)NC1=O [Example 1070] ({CH2CO}-[hPhe]YDWL[Bip]V[NMeA][Sar]NLVSCA-NH2; thioether N-14)
15 | 190 nM | CC(C)C[C@@H]1NC(=O)[C@H](Cc2c[nH]c3ccccc23)NC(=O)[C@H](CC(=O)O)NC(=O)[C@H](Cc2ccc(O)cc2)NC(=O)[C@H](Cc2ccccc2)NC(=O)CSC[C@@H](C(=O)NCC(N)=O)NC(=O)[C@H](CO)NC(=O)[C@H](C(C)C)NC(=O)[C@H](CC(C)C)NC(=O)[C@H](CCC(=O)O)NC(=O)CN(C)C(=O)[C@H](C)N(C)C(=O)[C@H](C(C)C)NC(=O)[C@H](Cc2ccc(-c3ccccc3)cc2)NC1=O [Example 1071] ({CH2CO}-FYDWL[Bip]V[NMeA][Sar]ELVSCG-NH2; thioether N-14)
16 | 190 nM | CCCC[C@@H]1NC(=O)[C@H](CC(N)=O)NC(=O)CN(C)C(=O)[C@H](C)N(C)C(=O)[C@H](C(C)C)NC(=O)[C@H](Cc2ccc(-c3ccccc3)cc2)NC(=O)[C@H](CC(C)C)NC(=O)[C@H](Cc2c[nH]c3ccccc23)NC(=O)[C@H](CC(=O)O)NC(=O)[C@H](Cc2ccc(O)cc2)NC(=O)[C@H](Cc2ccccc2)NC(=O)CSC[C@@H](C(=O)NCC(N)=O)NC(=O)[C@H](CO)NC(=O)[C@H](C(C)C)NC1=O [Example 1073] ({CH2CO}-FYDWL[Bip]V[NMeA][Sar]N[Nle]VSCG-NH2; thioether N-14)
